Laboratory results as given in ChEMBL document CHEMBL2021794, “Synthesis, σ₁, σ₂-receptors binding affinity and antiproliferative action of new C1-substituted adamantanes” (Bioorg Med Chem, 2012).

Legend:
[1] = Selectivity ratio of IC50 for human sigma-1 receptor to IC50 for rat sigma-2 receptor
[2] = tested on: SK-HEP1; experiment: Growth inhibition of human SKHEP1 cells after 48 hrs by SRB assay; assay type: functional; conditions: SK-HEP1, 48 h; for CC50: read-out: LC50 (the source's name)
[3] = tested on: LOX IMVI; experiment: Growth inhibition of human LOXIMVI cells after 48 hrs by SRB assay; assay type: functional
[4] = tested on: MCF7; experiment: Growth inhibition of human MCF7 cells after 48 hrs by SRB assay; assay type: functional; conditions: MCF7, 48 h; for CC50: read-out: LC50 (the source's name)
[5] = tested on: OVCAR-5; experiment: Growth inhibition of human OVCAR5 cells after 48 hrs by SRB assay; assay type: functional; conditions: OVCAR-5, 48 h; for CC50: read-out: LC50 (the source's name)
[6] = Displacement of [3H](+)1-DTG from sigma-2 receptor expressed in rat cerebral cortex membranes after 2 hrs by liquid scintillation spectroscopy; assay type: cell membranes, Membrane
[7] = tested on: BXPC-3; experiment: Growth inhibition of human BxPC3 cells after 48 hrs by SRB assay; assay type: functional; conditions: BXPC-3, 48 h
[8] = molecular target: Sigma non-opioid intracellular receptor 1 (Homo sapiens, UniProt Q99720); experiment: Displacement of [3H](+)pentazocine from sigma-1 receptor expressed in human Jurkat cell membranes after 2 hrs by liquid scintillation spectroscopy
Sequence of Sigma non-opioid intracellular receptor 1 (Q99720 whole entry): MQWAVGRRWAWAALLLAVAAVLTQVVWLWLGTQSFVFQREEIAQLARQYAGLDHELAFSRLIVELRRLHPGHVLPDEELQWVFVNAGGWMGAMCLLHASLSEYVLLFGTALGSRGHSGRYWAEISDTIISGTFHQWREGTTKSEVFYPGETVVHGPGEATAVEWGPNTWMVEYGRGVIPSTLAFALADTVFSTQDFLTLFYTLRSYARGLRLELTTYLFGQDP

[9] = (§1) Growth inhibition of NHDF cells after 48 hrs by SRB assay; assay type: cell-based; conditions: human, NHDF cells
[10] = tested on: NHDF; experiment: as §1; assay type: cell-based; conditions: human, nhdf, 48 h
[11] = tested on: H69AR; experiment: Growth inhibition of human H69AR cells after 48 hrs by SRB assay; assay type: functional
[12] = tested on: DU-145; experiment: Growth inhibition of human DU145 cells after 48 hrs by SRB assay; assay type: functional; conditions: DU-145, 48 h
[13] = (§2) Growth inhibition of HUVEC cells after 48 hrs by SRB assay; assay type: cell-based; conditions: human, HUVEC cells
[14] = tested on: HUVEC; experiment: as §2; assay type: cell-based; conditions: human, huvec, 48 h
[15] = tested on: PC-3; experiment: Growth inhibition of human PC3 cells after 48 hrs by SRB assay; assay type: functional; conditions: PC-3, 48 h
[16] = tested on: U-251; experiment: Growth inhibition of human U251 cells after 48 hrs by SRB assay; assay type: functional; conditions: U-251, 48 h
[17] = tested on: HCT-15; experiment: Growth inhibition of human HCT15 cells after 48 hrs by SRB assay; assay type: functional; conditions: HCT-15, 48 h
[18] = tested on: SF-268; experiment: Growth inhibition of human SF268 cells after 48 hrs by SRB assay; assay type: functional; conditions: SF-268, 48 h; for CC50: read-out: LC50 (the source's name)
[19] = tested on: HL-60(TB); experiment: Growth inhibition of human HL-60(TB) cells after 48 hrs by SRB assay; assay type: functional; conditions: HL-60, 48 h
[20] = tested on: SF-295; experiment: Growth inhibition of human SF295 cells after 48 hrs by SRB assay; assay type: functional; conditions: SF-295, 48 h
[21] = tested on: NCI-H460; experiment: Growth inhibition of human NCI-H460 cells after 48 hrs by SRB assay; assay type: functional; conditions: NCI-H460, 48 h
[22] = tested on: DMS-114; experiment: Growth inhibition of human DMS114 cells after 48 hrs by SRB assay; assay type: functional; conditions: DMS-114, 48 h
[23] = Displacement of [3H]BTX-B from Na+ channel site 2 after 60 mins by liquid scintillation spectroscopy
[24] = tested on: IGROV-1; experiment: Growth inhibition of human IGROV1 cells after 48 hrs by SRB assay; assay type: functional; conditions: IGROV-1, 48 h
[25] = tested on: HCT-116; experiment: Growth inhibition of human HCT116 cells after 48 hrs by SRB assay; assay type: functional; conditions: HCT-116, 48 h; for CC50: read-out: LC50 (the source's name)
[26] = Growth inhibition of human MSC cells after 48 hrs by SRB assay; assay type: cell-based
[27] = tested on: NCI-H69; experiment: Growth inhibition of human NCI-H69 cells after 48 hrs by SRB assay; assay type: functional; conditions: NCI-H69, 48 h
[28] = tested on: MIA PaCa-2; experiment: Growth inhibition of human MIAPaCa2 cells after 48 hrs by SRB assay; assay type: functional; conditions: MIA PaCa-2, 48 h; for CC50: read-out: LC50 (the source's name)
[29] = tested on: MIA PaCa-2; experiment: Antitumor activity against human MIAPaCa2 cells xenografted in SCID mouse assessed as tumor weight at 70 mg/kg, ip twice a week (reference value: 1225 +/- 308 mg); assay type: functional; conditions: route intraperitoneal
[30] = tested on: MIA PaCa-2; experiment: Antitumor activity against human MIAPaCa2 cells xenografted in SCID mouse assessed as reduction in tumor volume at 70 mg/kg, ip twice a week; conditions: MIA PaCa-2, ip, read-out: INH
[31] = read-out: LC50 (the source's name)

Question: Which results are given for `CCN1CCN(c2ccc(C(c3ccccc3)C34CC5CC(CC(C5)C3)C4)cc2)CC1` (configuration not stated)?
Answer: Ratio IC50 [1]: 1.4; GI50 [2]: 3.98 µM; TGI [2]: 7.24 µM; CC50 [2]: 29.8 µM; GI50 [3]: 3.79 µM; LC50 (concentration killing 50% of cells) [3]: 8.4 µM; TGI [3]: 6.09 µM; GI50 [4]: 9.23 µM; TGI [4]: 59 µM; CC50 [4]: 100 µM; GI50 [5]: 6 µM; TGI [5]: 24.5 µM; CC50 [5]: 77.8 µM; IC50 [6]: 0.004 µM; GI50 [7]: 7.07 µM; LC50 [7]: > 100 µM; TGI [7]: 41.6 µM; IC50 [8]: 0.0029 µM; GI50 at 48 h [9]: 7.43 µM; LC50 [10]: 100 µM; TGI [10]: 100 µM; GI50 [11]: 4.75 µM; TGI [11]: 7.82 µM; CC50 [11, 31]: 100 µM; GI50 [12]: 17.8 µM; TGI [12]: 58.7 µM; CC50 [12, 31]: 99.6 µM; GI50 at 48 h [13]: 3.56 µM; LC50 [14]: 9.88 µM; TGI [14]: 6.72 µM; GI50 [15]: 9.01 µM; TGI [15]: 65.6 µM; CC50 [15, 31]: 100 µM; GI50 [16]: 4.23 µM; TGI [16]: 7.42 µM; CC50 [16, 31]: 12 µM; GI50 [17]: 6.63 µM; LC50 [17]: 100 µM; TGI [17]: 41.2 µM; GI50 [18]: 8.24 µM; TGI [18]: 53.5 µM; CC50 [18]: 100 µM; GI50 [19]: 6.39 µM; LC50 [19]: 100 µM; TGI [19]: 100 µM; GI50 [20]: 19.6 µM; TGI [20]: 50.9 µM; CC50 [20, 31]: 82.2 µM; GI50 [21]: 5.77 µM; LC50 (concentration killing 50% of cells) [21]: 100 µM; TGI [21]: 9.44 µM; GI50 [22]: 6.05 µM; TGI [22]: 11.6 µM; CC50 [22, 31]: 20.3 µM; IC50 [23]: 0.7 µM; GI50 [24]: 8 µM; TGI [24]: 49 µM; CC50 [24, 31]: 100 µM; GI50 [25]: 6.39 µM; TGI [25]: 32.9 µM; CC50 [25]: 100 µM; GI50 at 48 h ([26]; MSC cells): 19.5 µM; LC50 ([26]; msc, 48 h): 100 µM; TGI ([26]; msc, 48 h): 72 µM; GI50 [27]: 5.54 µM; CC50 [27, 31]: 100 µM

Question: For `c1ccc(C(c2ccc(N3CCN(C4CCCCC4)CC3)cc2)C23CC4CC(CC(C4)C2)C3)cc1` (configuration not stated), which Ratio IC50 [1] is on record?
Answer: 360

Question: And the GI50 [4]?
Answer: 8.7 µM

Question: And the TGI [4]?
Answer: 55 µM

Question: What about the CC50 [4] of the same molecule?
Answer: 100 µM

Question: What about the GI50 [5] of the same molecule?
Answer: 55.4 µM

Question: What about the TGI [5] of the same molecule?
Answer: 98.2 µM

Question: And the CC50 [5]?
Answer: 100 µM

Question: What about the IC50 [6] of the same molecule?
Answer: 0.097 µM

Question: And the GI50 [7]?
Answer: 8.58 µM

Question: What about the LC50 [7] of the same molecule?
Answer: 100 µM

Question: And the TGI [7]?
Answer: 76.8 µM

Question: And the IC50 [8]?
Answer: 0.00027 µM

Question: And the GI50 [28]?
Answer: 20.2 µM

Question: And the TGI [28]?
Answer: 66.1 µM

Question: What about the CC50 [28] of the same molecule?
Answer: 100 µM

Question: What about the GI50 [18] of the same molecule?
Answer: 53.1 µM

Question: And the TGI [18]?
Answer: 99.8 µM

Question: What about the CC50 [18] of the same molecule?
Answer: 100 µM

Question: And the GI50 [21]?
Answer: 47.3 µM

Question: What about the LC50 (concentration killing 50% of cells) [21] of the same molecule?
Answer: 100 µM

Question: What about the TGI [21] of the same molecule?
Answer: 100 µM

Question: What about the IC50 [23] of the same molecule?
Answer: 0.7 µM

Question: And the GI50 [25]?
Answer: 22.2 µM

Question: What about the TGI [25] of the same molecule?
Answer: 100 µM

Question: And the CC50 [25]?
Answer: 100 µM

Question: With `Nc1ccn([C@@H]2O[C@H](CO)[C@@H](O)C2(F)F)c(=O)n1` [GEMCITABINE] as the molecule, how does the GI50 [7] read?
Answer: 3.64 µM

Question: What about the TGI [7] of the same molecule?
Answer: 9.05 µM

Question: And the Activity [29]?
Answer: 537 mg

Question: And the inhibition in vivo at 70 mg/kg [30]?
Answer: 56.2%

Question: And the GI50 [28]?
Answer: 35.8 µM

Question: And the TGI [28]?
Answer: 100 µM

Question: And the CC50 [28]?
Answer: 100 µM

Question: Which Ratio IC50 [1] does the source give for `c1ccc(CN2CCN(c3ccc(C(c4ccccc4)C45CC6CC(CC(C6)C4)C5)cc3)CC2)cc1` (configuration not stated) here?
Answer: 1.9

Question: And the GI50 [2]?
Answer: 23.5 µM

Question: And the TGI [2]?
Answer: 100 µM

Question: What about the CC50 [2] of the same molecule?
Answer: 100 µM

Question: What about the GI50 [4] of the same molecule?
Answer: 22.3 µM

Question: And the TGI [4]?
Answer: 99.4 µM

Question: And the CC50 [4]?
Answer: 100 µM

Question: And the GI50 [5]?
Answer: 84.3 µM

Question: What about the TGI [5] of the same molecule?
Answer: 100 µM

Question: What about the CC50 [5] of the same molecule?
Answer: 100 µM

Question: And the IC50 [6]?
Answer: 0.119 µM

Question: And the GI50 [7]?
Answer: 7.51 µM

Question: What about the LC50 [7] of the same molecule?
Answer: 100 µM

Question: And the TGI [7]?
Answer: 52.1 µM

Question: What about the IC50 [8] of the same molecule?
Answer: 0.0633 µM

Question: And the GI50 at 48 h [13]?
Answer: 76.8 µM

Question: And the LC50 [14]?
Answer: 100 µM

Question: What about the TGI [14] of the same molecule?
Answer: 100 µM

Question: What about the GI50 [28] of the same molecule?
Answer: 14.9 µM

Question: And the TGI [28]?
Answer: 100 µM

Question: What about the CC50 [28] of the same molecule?
Answer: 100 µM

Question: And the CC50 [18]?
Answer: 100 µM

Question: And the GI50 [21]?
Answer: 54.7 µM

Question: What about the LC50 (concentration killing 50% of cells) [21] of the same molecule?
Answer: 100 µM

Question: What about the TGI [21] of the same molecule?
Answer: 100 µM

Question: And the IC50 [23]?
Answer: 1.6 µM

Question: And the GI50 [25]?
Answer: 12 µM

Question: And the TGI [25]?
Answer: 100 µM

Question: What about the CC50 [25] of the same molecule?
Answer: 100 µM
